From patent US11117898B2, “Pyrazolo-heteroaryl derivative, preparation method and medical use thereof” (Jiangsu Hengrui Medicine Co., Ltd., priority 2016, dated 2021)
pEC50, pIC50: −log10 of the molar value.

Columns and labels:
CYP2D6 = CYP2D6 (Homo sapiens (Human), UniProt P10635); experiment: Inhibition of the enzyme activity of CYP2D6 in human liver microsomes; format: in vitro ADME; conditions: probe substrate dextromethorphan
Description: The effect of the compounds of the present invention on the enzyme activity of CYP2D6 in human liver microsomes was determined by the following experimental method:
(§1) 100 mM PBS buffer was formulated, which was then used to formulate 2.5 mg/ml microsome solution and 5 mM NADPH solution. The 5× concentration of the compound working solution was diluted with PBS gradient (150, 50, 15, 5, 1.5, 0.15, 0.015, 0 μM). The 5× concentration of quinidine working solution was diluted with PBS gradient (150, 50, 15, 5, 1.5, 0.15, 0.015, 0 μM). Dextromethorphan working solution was diluted with PBS to a concentration of 50 μM.
(§2) 20 μl of 2.5 mg/ml microsome solution, 20 μl of 50 μM testosterone working solution, 20 μl of MgCl2 solution and 20 μl of the compound working solution (150, 50, 15, 5, 1.5, 0.15, 0.015, 0 μM, different reaction systems for each concentration) were taken respectively and mixed well. For the positive control group, the compound was replaced with the same concentration of quinidine. The mixture together with 5 mM NADPH solution were pre-incubated at 37° C. for 5 minutes. After 5 minutes, 20 μl of NADPH were added to each well, the reaction was started and incubated for 30 minutes. All the incubated samples were present in duplicate. After 30 minutes, 250 μl of acetonitrile containing internal standard were added to all samples, mixed well, shaken at 800 rpm for 10 minutes, and then centrifuged at 3700 rpm for 10 minutes. 80 μl of the supernatant were taken and analyzed by LC-MS/MS.
The data were calculated by Graphpad Prism to obtain the IC50 values of the compounds on the metabolite site of CYP2D6.

CYP3A4 [1] = molecular target: T1, CYP3A4 (Homo sapiens (Human), UniProt P08684); experiment: Inhibition of the midazolam metabolite site of CYP3A4 in human liver microsomes; format: in vitro ADME; conditions: probe substrate midazolam
Description: The effect of the compounds of the present invention on the enzyme activity of midazolam metabolite site of CYP3A4 in human liver microsomes was determined by the following experimental method:
as §1, with “ketoconazole” for “quinidine”
as §2, with “ketoconazole.” for “quinidine.”
The data were calculated by Graphpad Prism to obtain the IC50 values of the compounds on the midazolam metabolite site of CYP3A4.

human TLR8 = human TLR8 (Homo sapiens (Human), UniProt Q9NR97); experiment: Agonistic activity on human TLR8 in HEK-Blue hTLR8 stably transfected cells; format: cell-based; conditions: for pEC50: OD 620 nm
Description: The activation effect of the compounds of the present invention on the hTLR8 protein expressed by the HEK-Blue™ hTLR8 stably transfected cells was determined by the following experimental method:
(§3) A bag of HEK-Blue detection dry powder was dissolved in 50 ml of water free of endotoxin, and the solution was then placed in an incubator at 37° C. for 10 minutes followed by sterile filtration to prepare a HEK-Blue detection medium. The compound was firstly formulated into a 20 mM stock solution, then diluted with pure DMSO to a maximum concentration of 6×10^6 nM, and a total of 10 points were obtained by a 3-fold gradient dilution. The compound was firstly diluted 20-fold with the medium, then 20 μl of the diluted compound were added to each well.
(§4) The supernate was removed from the HEK-Blue™ hTLR8 cells, to which 2-5 ml of pre-warmed PBS were then added. The cells were placed in an incubator for 1-2 minutes, gently pipetted, and counted by trypan blue staining. The cells were re-suspended in the HEK-Blue detection medium to adjust the concentration to 2.2×10^5 cells/ml. 180 μl of cells were added to the above 96-well plate already added with 20 μl of the compounds, and incubated at 37° C. for 6-16 hours.
The activation effect of the compounds of the present invention on human TLR8 can be determined by the above test, and the obtained EC50 values are shown in Table 2.

CYP3A4 [2] = molecular target: T1, CYP3A4; experiment: Inhibition of the testosterone metabolite site of CYP3A4 in human liver microsomes; format: in vitro ADME; conditions: probe substrate testosterone
Description: The effect of the compounds of the present invention on the enzyme activity of testosterone metabolite site of CYP3A4 in human liver microsomes was determined by the following experimental method:
as §1, with “ketoconazole” for “quinidine”
as §2, with “ketoconazole.” for “quinidine.”
The data were calculated by Graphpad Prism to obtain the IC50 values of the compounds on the testosterone metabolite site of CYP3A4.

human TLR7 = human TLR7 (Homo sapiens (Human), UniProt Q9NYK1); experiment: Agonistic activity on human TLR7 in HEK-Blue hTLR7 stably transfected cells; format: cell-based; conditions: for pEC50: OD 620 nm
Description: The activation effect of the compounds of the present invention on the hTLR7 protein expressed by the HEK-Blue™ hTLR7 stably transfected cells was determined by the following experimental method:
as §3, with “dilution.” for “dilution. The compound was firstly diluted 20-fold with the medium, then 20 μl of the diluted compound were added to each well.”
as §4, with “The above formulated compound was firstly diluted 20-fold with the medium, then 20 μl of the diluted compound were added to each well. The supernate” for “The supernate”, “the HEK-Blue™ hTLR7 cells, to” for “the HEK-Blue™ hTLR8 cells, to”
The activation effect of the compounds of the present invention on human TLR7 can be determined by the above test, and the obtained EC50 values are shown in Table 1.

Chain of human TLR8 (Q9NR97 27-1041): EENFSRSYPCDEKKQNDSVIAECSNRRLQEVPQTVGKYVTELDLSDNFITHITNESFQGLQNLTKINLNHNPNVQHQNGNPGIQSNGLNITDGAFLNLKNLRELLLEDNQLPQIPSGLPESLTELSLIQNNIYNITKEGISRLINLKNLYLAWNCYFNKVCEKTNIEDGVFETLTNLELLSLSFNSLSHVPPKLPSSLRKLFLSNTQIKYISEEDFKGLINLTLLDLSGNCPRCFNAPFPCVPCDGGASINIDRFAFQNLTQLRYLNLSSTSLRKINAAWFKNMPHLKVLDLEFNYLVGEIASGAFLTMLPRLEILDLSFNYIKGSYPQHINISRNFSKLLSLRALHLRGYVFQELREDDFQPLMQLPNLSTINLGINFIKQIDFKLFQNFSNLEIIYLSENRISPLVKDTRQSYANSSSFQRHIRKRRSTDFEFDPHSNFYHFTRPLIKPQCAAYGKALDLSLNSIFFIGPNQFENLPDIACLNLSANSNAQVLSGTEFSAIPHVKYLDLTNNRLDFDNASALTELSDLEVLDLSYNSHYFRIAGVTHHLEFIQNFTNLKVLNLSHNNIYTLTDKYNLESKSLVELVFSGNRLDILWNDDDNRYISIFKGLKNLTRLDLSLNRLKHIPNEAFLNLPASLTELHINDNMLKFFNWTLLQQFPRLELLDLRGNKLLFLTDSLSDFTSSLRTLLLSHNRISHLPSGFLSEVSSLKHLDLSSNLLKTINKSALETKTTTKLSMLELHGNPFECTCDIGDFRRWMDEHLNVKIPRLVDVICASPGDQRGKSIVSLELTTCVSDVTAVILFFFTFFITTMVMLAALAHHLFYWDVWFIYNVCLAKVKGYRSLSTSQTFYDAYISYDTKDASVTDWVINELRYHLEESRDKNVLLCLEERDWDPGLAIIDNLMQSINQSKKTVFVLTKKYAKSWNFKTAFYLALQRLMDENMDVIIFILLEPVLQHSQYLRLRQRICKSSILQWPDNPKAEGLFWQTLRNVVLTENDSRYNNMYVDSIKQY
T1 sequence (P08684 whole entry): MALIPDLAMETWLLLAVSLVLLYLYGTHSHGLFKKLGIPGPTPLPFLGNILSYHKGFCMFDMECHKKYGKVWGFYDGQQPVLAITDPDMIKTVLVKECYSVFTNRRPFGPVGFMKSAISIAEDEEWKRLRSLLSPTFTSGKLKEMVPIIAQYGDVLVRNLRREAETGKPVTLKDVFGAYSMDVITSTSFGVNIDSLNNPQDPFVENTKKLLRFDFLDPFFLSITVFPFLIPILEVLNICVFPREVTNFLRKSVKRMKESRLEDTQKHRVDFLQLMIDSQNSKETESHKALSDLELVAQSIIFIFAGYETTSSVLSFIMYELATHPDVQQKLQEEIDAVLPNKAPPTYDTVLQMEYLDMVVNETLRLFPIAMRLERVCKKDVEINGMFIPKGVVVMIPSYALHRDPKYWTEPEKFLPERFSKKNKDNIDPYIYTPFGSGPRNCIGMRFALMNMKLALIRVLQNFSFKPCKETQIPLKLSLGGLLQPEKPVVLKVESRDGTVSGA
Chain of human TLR7 (Q9NYK1 27-1049): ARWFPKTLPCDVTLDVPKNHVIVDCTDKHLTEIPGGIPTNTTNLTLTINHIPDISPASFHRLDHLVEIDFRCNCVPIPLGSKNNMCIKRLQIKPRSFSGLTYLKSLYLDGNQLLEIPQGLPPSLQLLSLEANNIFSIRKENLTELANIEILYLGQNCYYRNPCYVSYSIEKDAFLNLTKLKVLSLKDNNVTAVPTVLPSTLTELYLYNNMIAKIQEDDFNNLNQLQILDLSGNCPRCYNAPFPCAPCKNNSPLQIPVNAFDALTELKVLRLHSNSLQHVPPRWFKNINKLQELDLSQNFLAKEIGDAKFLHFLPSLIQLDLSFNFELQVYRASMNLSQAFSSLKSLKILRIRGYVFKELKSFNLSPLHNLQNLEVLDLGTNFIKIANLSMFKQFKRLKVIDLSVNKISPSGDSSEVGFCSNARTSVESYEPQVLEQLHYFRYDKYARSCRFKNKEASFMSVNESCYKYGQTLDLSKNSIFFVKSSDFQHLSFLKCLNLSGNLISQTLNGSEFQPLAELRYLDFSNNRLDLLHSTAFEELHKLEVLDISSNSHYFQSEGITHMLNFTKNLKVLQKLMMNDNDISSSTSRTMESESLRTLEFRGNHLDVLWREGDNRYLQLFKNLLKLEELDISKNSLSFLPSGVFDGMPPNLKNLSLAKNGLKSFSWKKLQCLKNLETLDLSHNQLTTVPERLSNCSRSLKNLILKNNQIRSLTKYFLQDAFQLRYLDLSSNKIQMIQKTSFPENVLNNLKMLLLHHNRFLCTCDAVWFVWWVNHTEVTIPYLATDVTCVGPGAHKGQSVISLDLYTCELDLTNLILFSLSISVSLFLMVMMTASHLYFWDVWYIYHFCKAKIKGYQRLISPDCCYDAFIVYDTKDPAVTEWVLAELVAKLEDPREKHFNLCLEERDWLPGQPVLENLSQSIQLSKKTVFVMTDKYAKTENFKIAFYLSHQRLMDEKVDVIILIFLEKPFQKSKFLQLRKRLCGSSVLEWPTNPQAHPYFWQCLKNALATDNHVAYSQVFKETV
Chain of CYP2D6 (P10635 whole entry): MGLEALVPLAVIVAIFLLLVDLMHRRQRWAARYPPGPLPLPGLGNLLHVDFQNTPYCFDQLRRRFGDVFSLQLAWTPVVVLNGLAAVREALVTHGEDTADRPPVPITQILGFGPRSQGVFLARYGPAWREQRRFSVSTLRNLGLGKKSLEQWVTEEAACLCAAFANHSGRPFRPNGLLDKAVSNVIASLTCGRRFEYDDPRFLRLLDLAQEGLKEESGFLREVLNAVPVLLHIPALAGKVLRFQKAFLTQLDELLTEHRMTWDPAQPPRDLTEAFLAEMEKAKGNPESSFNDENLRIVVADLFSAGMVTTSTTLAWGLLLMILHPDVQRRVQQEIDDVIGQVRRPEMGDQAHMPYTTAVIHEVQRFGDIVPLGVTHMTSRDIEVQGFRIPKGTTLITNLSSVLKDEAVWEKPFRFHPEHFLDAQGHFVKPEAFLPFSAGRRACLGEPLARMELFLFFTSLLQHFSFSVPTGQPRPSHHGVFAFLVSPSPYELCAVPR

SMILES	pIC50 (CYP2D6)	pIC50 (CYP3A4 [1])	Emax (human TLR8)	pEC50 (human TLR8)	pIC50 (CYP3A4 [2])	Emax (human TLR7)	pEC50 (human TLR7)
CCCCOc1nc(N)c2cnn(Cc3ccc(CN4CCCCC4)cc3)c2n1 [Example 3, 6-Butoxy-1-(4-(piperidin-1-ylmethyl)benzyl)-1H-pyrazolo[3,4-d]pyrimidin-4-amine]	5.40	5.15	2%	< 4.62	5.52	91%	7.11
COCCOc1nc(N)c2cnn(Cc3ccc(CN4CCCC4)cc3)c2n1 [Example 7, 6-(2-Methoxyethoxy)-1-(4-(pyrrolidin-1-ylmethyl)benzyl)-1H-pyrazolo[3,4-d]pyrimidin-4-amine]	< 4.52	< 4.52	0%	< 4.52	< 4.52	95%	6.74
CCCCOc1nc(N)c2cnn(Cc3ccc(CN4CCC4)cc3)c2n1 [Example 2, 1-(4-(Azetidin-1-ylmethyl)benzyl)-6-butoxy-1H-pyrazolo[3,4-d]pyrimidin-4-amine]	< 4.52	5.00	52%	< 4.54	4.72	91%	7.19
CCCCOc1nc(N)c2cnn(Cc3cccc(CN4CCCC4)c3)c2n1 [Example 4, 6-Butoxy-1-(3-(pyrrolidin-1-ylmethyl)benzyl)-1H-pyrazolo[3,4-d]pyrimidin-4-amine]	4.80	4.96	28%	< 4.52	5.22	88%	6.78
